The record followed here is patent publication US20140255392A1 (BAYER INTELLECTUAL PROPERTY GMBH, priority 2011, published 2014).

In the assay the target is T1, human kinase Mps-1 (Homo sapiens, UniProt P33981).
T1 construct: N-terminally GST-tagged human full length recombinant Mps-1 kinase; GST (N); purchased Invitrogen, Karslruhe, Germany PV4071
T1 sequence (P33981 1-857): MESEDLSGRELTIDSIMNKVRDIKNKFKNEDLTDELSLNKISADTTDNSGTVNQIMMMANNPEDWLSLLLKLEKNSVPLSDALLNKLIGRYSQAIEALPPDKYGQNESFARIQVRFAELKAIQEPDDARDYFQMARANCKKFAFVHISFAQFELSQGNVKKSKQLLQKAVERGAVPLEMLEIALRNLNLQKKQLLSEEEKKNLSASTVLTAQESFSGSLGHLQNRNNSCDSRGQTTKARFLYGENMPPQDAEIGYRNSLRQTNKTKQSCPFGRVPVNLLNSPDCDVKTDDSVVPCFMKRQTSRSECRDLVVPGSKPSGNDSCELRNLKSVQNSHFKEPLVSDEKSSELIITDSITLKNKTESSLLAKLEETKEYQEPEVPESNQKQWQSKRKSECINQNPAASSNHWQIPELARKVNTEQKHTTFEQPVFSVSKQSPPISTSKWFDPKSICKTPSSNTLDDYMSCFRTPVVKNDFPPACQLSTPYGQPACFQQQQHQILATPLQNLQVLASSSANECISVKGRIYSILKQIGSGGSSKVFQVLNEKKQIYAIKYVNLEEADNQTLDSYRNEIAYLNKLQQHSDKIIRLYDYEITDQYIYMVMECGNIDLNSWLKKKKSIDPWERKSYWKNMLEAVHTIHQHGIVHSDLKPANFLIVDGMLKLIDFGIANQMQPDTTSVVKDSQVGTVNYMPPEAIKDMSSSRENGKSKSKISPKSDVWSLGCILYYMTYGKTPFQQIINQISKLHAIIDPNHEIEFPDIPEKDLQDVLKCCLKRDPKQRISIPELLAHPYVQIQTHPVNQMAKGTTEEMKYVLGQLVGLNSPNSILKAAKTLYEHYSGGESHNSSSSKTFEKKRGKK
Briefly: Mps-1 kinase assay (TR-FRET). The settings on record: N-terminally GST-tagged human full length recombinant Mps-1; 10 μM ATP; 1 μM peptide substrate; 60 min at 22° C. It is filed as biochemical. How it is done:
The human kinase Mps-1 phosphorylates a biotinylated substrate peptide. Detection of the phosphorylated product is achieved by time-resolved fluorescence resonance energy transfer (TR-FRET) from Europium-labelled anti-phospho-Serine/Threonine antibody as donor to streptavidin labelled with cross-linked allophycocyanin (SA-XLent) as acceptor. Compounds are tested for their inhibition of the kinase activity.
N-terminally GST-tagged human full length recombinant Mps-1 kinase (purchased from Invitrogen, Karslruhe, Germany, cat. no PV4071) was used. As substrate for the kinase reaction a biotinylated peptide of the amino-acid sequence […] (C-terminus in amide form, purchased from Biosynthan GmbH, Berlin) was used.
The concentration of Mps-1 in the assay was adjusted to the activity of the enzyme lot and was chosen appropriate to have the assay in the linear range, typical enzyme concentrations were in the range of about 1 nM (final conc. in the 5 μl assay volume).
The resulting mixture was incubated 1 h at 22° C. to allow the binding of the phosphorylated peptide to the anti-phospho(Ser/Thr)-Europium-antibody. Subsequently the amount of phosphorylated substrate was evaluated by measurement of the resonance energy transfer from the Europium-labelled anti-phospho(Ser/Thr) antibody to the Streptavidin-XLent.
In general terms: TR-FRET usually uses a lanthanide donor and a delayed reading to cut background.

The term IC50 denotes the midpoint of a concentration-inhibition curve. Consider `COc1cccc(Oc2cc(NCCC(F)(F)F)c3ncc(-c4ccc(C(=O)NC5CC5)c(C)c4)n3c2)c1` [Example 52, N-cyclopropyl-4-{6-(3-methoxyphenoxy)-8-[(3,3,3-trifluoropropyl)amino]imidazo[1,2-a]pyridin-3-yl}-2-methylbenzamide], for which the IC50 was 0.9 nM.

Regarding `Cc1cc(-c2cnc3c(NCC(F)F)cc(Oc4cccc(F)c4)cn23)ccc1C(=O)NC1CC1` [Example 161, N-cyclopropyl-4-{8-[(2,2-difluoroethyl)amino]-6-(3-fluorophenoxy)imidazo[1,2-a]pyridin-3-yl}-2-methylbenzamide], the IC50 stood at 2.3 nM.

Take `Cc1ccc(F)cc1Oc1cc(NCCC(F)(F)F)c2ncc(-c3ccc(C(=O)NC4(C)CC4)c(C)c3)n2c1` [Example 27, 4-{6-(5-Fluoro-2-methylphenoxy)-8-[(3,3,3-trifluoropropyl)amino]imidazo[1,2-a]pyridin-3-yl}-2-methyl-N-(1-methylcyclopropyl)benzamide]: the IC50 was determined as 4.2 nM.

As to `COc1ccc(Oc2cc(NCC(F)F)c3ncc(-c4ccc(C(=O)NC5CC5)c(C)c4)n3c2)cc1` [Example 162, N-cyclopropyl-4-{8-[(2,2-difluoroethyl)amino]-6-(4-methoxyphenoxy)imidazo[1,2-a]pyridin-3-yl}-2-methylbenzamide], the IC50 was found to be 8.6 nM.

Consider `CNC(=O)c1ccc(-c2cnc3c(NCCC(F)(F)F)cc(-c4ccccc4OC)cn23)cc1C` [Example 81, 4-{6-(2-Methoxyphenyl)-8-[(3,3,3-trifluoropropyl)amino]imidazo[1,2-a]pyridin-3-yl}-N,2-dimethylbenzamide], for which the IC50 was 19.8 nM.

As for `Cc1cc(-c2cnc3c(NCCC(F)(F)F)cc(-c4ccccc4CO)cn23)ccc1C(=O)NC1CC1` [Example 2-1, N-cyclopropyl-4-{6-[2-(hydroxymethyl)phenyl]-8-[(3,3,3-trifluoropropyl)amino]imidazo[1,2-a]pyridin-3-yl}-2-methylbenzamide], the IC50 amounted to 0.9 nM.

For `CNC(=O)c1ccc(-c2cnc3c(NCCC(F)(F)F)cc(Oc4cccc(Cl)c4)cn23)cc1C` [Example 34, 4-{6-(3-chlorophenoxy)-8-[(3,3,3-trifluoropropyl)amino]imidazo[1,2-a]pyridin-3-yl}-N,2-dimethylbenzamide], the IC50 came to 6.2 nM.

Regarding `Cc1cc(-c2cnc3c(NCCC(F)(F)F)cc(Oc4cccc(Cl)c4)cn23)ccc1C(=O)NC1CC1F` (single isomer, unassigned) [Example 39 (A or ent.-A), 4-{6-(3-chlorophenoxy)-8-[(3,3,3-trifluoropropyl)amino]imidazo[1,2-a]pyridin-3-yl}-N-{[(1S,2S) or (1R,2R)]-2-fluorocyclopropyl}-2-methylbenzamide], the IC50 worked out at 2.9 nM.

With `Cc1cc(-c2cnc3c(NCCC(F)(F)F)cc(C(C)O)cn23)ccc1C(=O)NC1CC1` (racemic) [Example 143, N-cyclopropyl-4-{6-[(1RS)-1-hydroxyethyl]-8-[(3,3,3-trifluoropropyl)amino]imidazo[1,2-a]pyridin-3-yl}-2-methylbenzamide], the IC50 worked out at 33.2 nM.

For `CCNC(=O)c1ccc(-c2cnc3c(NCCC(F)(F)F)cc(CC)cn23)cc1C` [Example 101, N-ethyl-4-{6-ethyl-8-[(3,3,3-trifluoropropyl)amino]imidazo[1,2-a]pyridin-3-yl}-2-methylbenzamide], the IC50 is 123 nM.

`C/C=C/c1cc(NCCC(F)(F)F)c2ncc(-c3ccc(C(=O)NC4CC4)c(C)c3)n2c1` [Example 111, N-cyclopropyl-2-methyl-4-{6-[(1E)-prop-1-en-1-yl]-8-[(3,3,3-trifluoropropyl)amino]imidazo[1,2-a]pyridin-3-yl}benzamide]: the IC50 was 5.8 nM.

For the molecule `C=Cc1cc(NCCC(F)(F)F)c2ncc(-c3ccc(C(=O)N[C@H]4C[C@@H]4C)c(C)c3)n2c1` (relative stereo) [Example 98, 2-Methyl-N-[rel-(1S,2S)-2-methylcyclopropyl]-4-{8-[(3,3,3-trifluoropropyl)amino]-6-vinylimidazo[1,2-a]pyridin-3-yl}benzamide], the IC50 came out at 29.4 nM.

`Cc1cc(-c2cnc3c(NCCC(F)(F)F)cc(-c4ccncc4)cn23)ccc1C(=O)NC1(C#N)CC1` [Example 91, N-(1-cyanocyclopropyl)-2-methyl-4-{6-(pyridin-4-yl)-8-[(3,3,3-trifluoropropyl)amino]imidazo[1,2-a]pyridin-3-yl}benzamide]: the IC50 was 20.6 nM.

As to `C=Cc1cc(NCCC(F)(F)F)c2ncc(-c3ccc(C(=O)NCC)c(C)c3)n2c1` [Example 94, N-ethyl-2-methyl-4-{8-[(3,3,3-trifluoropropyl)amino]-6-vinylimidazo[1,2-a]pyridin-3-yl}benzamide], the IC50 came to 84.3 nM.

As for `CCNC(=O)c1ccc(-c2cnc3c(NCCC(F)(F)F)cc(Oc4ccc(OC(F)(F)F)c(F)c4)cn23)cc1C` [Example 87, N-ethyl-4-{6-[3-fluoro-4-(trifluoromethoxy)phenoxy]-8-[(3,3,3-trifluoropropyl)amino]imidazo[1,2-a]pyridin-3-yl}-2-methylbenzamide], the IC50 amounted to 70.3 nM.

In the case of `Cc1cc(-c2cnc3c(NCCC(F)(F)F)cc(Oc4ccc(O)cc4)cn23)ccc1C(=O)NC1CC1` [Example 110, N-cyclopropyl-4-{6-(4-hydroxyphenoxy)-8-[(3,3,3-trifluoropropyl)amino]imidazo[1,2-a]pyridin-3-yl}-2-methylbenzamide], the IC50 turned out to be 0.6 nM.

As for `CNC(=O)c1ccc(-c2cnc3c(NCCC(F)(F)F)cc(-c4ccncc4)cn23)cc1C` [Example 88, N,2-dimethyl-4-{6-(pyridin-4-yl)-8-[(3,3,3-trifluoropropyl)amino]imidazo[1,2-a]pyridin-3-yl}benzamide], the concentration for half-maximal inhibition (IC50) was found to be 9.8 nM.

Regarding `CNC(=O)c1ccc(-c2cnc3c(NCCC(F)(F)F)cc(-c4ccc(C(=O)NC5(C)CC5)c(C)c4)cn23)cc1C` [Example 157, 2-methyl-N-(1-methylcyclopropyl)-4-{3-[3-methyl-4-(methylcarbamoyl)phenyl]-8-[(3,3,3-trifluoropropyl)amino]imidazo[1,2-a]pyridin-6-yl}benzamide], the IC50 came out at 15.3 nM.

Take `Cc1cc(-c2cnc3c(NCCC(F)(F)F)cc(Oc4cccc(F)c4)cn23)ccc1C(=O)NC1CC1` [Example 6-1, N-cyclopropyl-4-{6-(3-fluorophenoxy)-8-[(3,3,3-trifluoropropyl)amino]imidazo[1,2-a]pyridin-3-yl}-2-methylbenzamide]: the IC50 was 0.3 nM.

As to `COc1ccc(Oc2cc(NCC3CCOCC3)c3ncc(-c4ccc(C(=O)NC5CC5)c(C)c4)n3c2)cc1F` [Example 123, N-cyclopropyl-4-{6-(3-fluoro-4-methoxyphenoxy)-8-[(tetrahydro-2H-pyran-4-ylmethyl)amino]imidazo[1,2-a]pyridin-3-yl}-2-methylbenzamide], the IC50 came out at 0.8 nM.

With `Cc1cc(-c2cnc3c(NCCC(F)(F)F)cc(Oc4cccc(Cl)c4)cn23)ccc1C(=O)NC1(C#N)CC1` [Example 37, 4-{6-(3-chlorophenoxy)-8-[(3,3,3-trifluoropropyl)amino]imidazo[1,2-a]pyridin-3-yl}-N-(1-cyanocyclopropyl)-2-methylbenzamide], the IC50 was 23 nM.

Turning to `Cc1ccc(F)cc1Oc1cc(NCCC(F)(F)F)c2ncc(-c3ccc(C(=O)NC4(C5CC5)CC4)c(C)c3)n2c1` [Example 62, N-[1′,1′-bi(cyclopropyl)-1-yl]-4-{6-(5-fluoro-2-methylphenoxy)-8-[(3,3,3-trifluoropropyl)amino]imidazo[1,2-a]pyridin-3-yl}-2-methylbenzamide], the half-inhibitory concentration (IC50) worked out at 49.3 nM.

Take `Cc1cc(-c2cnc3c(NCCC(F)(F)F)cc(CCCO)cn23)ccc1C(=O)NC1CC1` [Example 128, N-cyclopropyl-4-{6-(3-hydroxypropyl)-8-[(3,3,3-trifluoropropyl)amino]imidazo[1,2-a]pyridin-3-yl}-2-methylbenzamide]: the IC50 worked out at 9.5 nM.

Turning to `CNC(=O)c1ccc(-c2cnc3c(NCCC(F)(F)F)cc(CCCO)cn23)cc1C` [Example 126, 4-{6-(3-hydroxypropyl)-8-[(3,3,3-trifluoropropyl)amino]imidazo[1,2-a]pyridin-3-yl}-N,2-dimethylbenzamide], the IC50 amounted to 146 nM.
